Here are results for 15 compounds from PubChem BioAssay (NCI).

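Dose response: 5 concentrations. Exposure: 48 h. Format: 96-well plates. Endpoint: linear interpolation; highest concentration if not reached. Definition used: TGI = concentration required for complete inhibition of growth.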 Where only a bound is given, the exact number is not on record here.

Common to all, as to experiment: DTP human tumour cell line panel, 48 h
Assay [1] deals with A498 renal.
The subject of assay [2] is SK-MEL-5 melanoma.
For assay [3], the system named is RPMI-8226 leukemia.
The subject of assay [4] is KM12 colon.
Assay [5] has as its system SK-MEL-28 melanoma.
Assay [6] concerns MDA-MB-231 breast.
Assay [7] deals with NCI-H226 lung.
In assay [8] the test system is OVCAR-4 ovarian.
Assay [9] relates to T-47D breast.
In assay [10] the test system is SW-620 colon.

On to `Nc1nc2c(c(-c3cccc(Cl)c3)n1)COC/C2=C\c1cccc(Cl)c1`, for which the total growth inhibition concentration (TGI) in [1], in [2], in assay [3], in assay [4], in [5] and in assay [6] was above 100 µM each time. Moreover, the total growth inhibition concentration (TGI) in assay [7], in [8], in assay [9] and in assay [10] was above 100 µM in each case.

Take `NC(N)=Nc1ccc(CC(N)NCC(=O)O)cc1` (centres undefined): the TGI in [1], in [2], in [3], in assay [4], in assay [5] and in [6] was above 25 µM each time. In addition, the TGI in assay [7], in assay [8], in assay [9] and in [10] was above 25 µM in each case.

`O=[N+]([O-])c1cc(C=NC23CC4CC(CC(C4)C2)C3)ccc1Cl`: the TGI – broadly, the concentration at which net growth stops – in assay [1] is above 100 µM; in assay [2], 55.4 µM; in [3] it was 16.8 µM; in assay [4], 55 µM; in assay [5] it was 38 µM; in [6], 24.7 µM. The TGI in assay [7] is above 81.3 µM; in assay [8], 36.3 µM; in assay [9] it was 40.8 µM; in assay [10] it was 27.7 µM.

Take `Nn1c(-c2ccccc2)n[nH]c1=O`: the total growth inhibition concentration (TGI) in [1], in assay [2], in assay [3], in assay [4], in [5] and in assay [6] was above 100 µM throughout. Besides, the TGI in [7], in assay [8], in [9] and in assay [10] was above 100 µM throughout.

For the compound `N=c1nnc2ccc(Cl)cc2n1O`, the TGI in assay [1], in [2], in [3], in assay [4], in assay [5] and in [6] was above 100 µM in each case. Besides, the TGI in assay [7], in [9] and in [10] was above 100 µM in each case.

Consider `COC(=O)C1=C(C(=O)OC)SC(=C2SCSC3=C2SC(C(=O)OC)=C(C(=O)OC)C32SC3=C(CCCC3)S2)S1`, for which the TGI in [1], in [2], in assay [4], in [5], in [6] and in [7] was above 100 µM each time. The TGI in assay [8], in [9] and in assay [10] was above 100 µM each time.

As for `CCOP(=O)(OCC)C(F)(F)c1ccc(CC(NC(=O)OC(C)(C)C)C(=O)O)cc1` (centres undefined), the concentration for total growth inhibition (TGI) in assay [1], in [2], in [4], in [5], in assay [6] and in [7] was above 10 µM throughout. The TGI in assay [8], in assay [9] and in assay [10] was above 10 µM each time.

As to `CC1=Nc2ccccc2OC(C)=C1N=Nc1ccc2nc(C)[nH]c2c1`, the TGI in [1] was 99.5 µM; in assay [3], above 100 µM; in assay [4], above 100 µM; in [5] it was above 100 µM; in [6], above 100 µM; in assay [7], above 100 µM. Besides, the TGI in assay [8], in assay [9] and in [10] was above 100 µM each time.

On to `CCN(CC)CCNC(=O)c1cc2cc(NC(=O)c3cc4cc([N+](=O)[O-])ccc4[nH]3)ccc2[nH]1`, for which the concentration for total growth inhibition (TGI) in assay [1] was above 82.7 µM; in assay [2], above 100 µM; in [3] it was 9.63 µM; in assay [5], 66.8 µM; in assay [6], above 100 µM; in assay [7] it was above 87.3 µM. Besides, the total growth inhibition concentration (TGI) in assay [8] is above 100 µM; in assay [9] it was above 100 µM; in assay [10] it was above 58 µM.

Regarding `O=[N+]([O-])c1ccc2[nH]nc(OCc3ccccc3Cl)c2c1`, the concentration for total growth inhibition (TGI) in assay [1], in [2], in assay [3], in [4], in assay [5] and in assay [6] was above 100 µM throughout. The TGI was above 100 µM in [7], above 100 µM in assay [8] and 42.9 µM in assay [9].

Consider `O=C(NCc1ccccc1)c1n[nH][nH]c1=O`, for which the concentration for total growth inhibition (TGI) in assay [2], in [3], in assay [4], in assay [5], in [6] and in assay [7] was above 100 µM throughout. The TGI in [8], in assay [9] and in assay [10] was above 100 µM each time.

For the compound `COc1ncc(/C=C2\OC(=O)c3ccccc32)c(OC)n1`, the TGI in [1] was above 100 µM; in assay [2], 58.7 µM; in assay [3], above 100 µM; in assay [4], above 100 µM; in [5], above 100 µM; in assay [6], above 100 µM. Moreover, the TGI in assay [7], in assay [9] and in assay [10] was above 100 µM each time.

With `COc1cc(S(=O)(=O)Nc2nc(-c3ccc(N4C(=O)C(CC(=O)O)SC4c4cccs4)cc3)cs2)ccc1Cl` (centres undefined), the concentration for total growth inhibition (TGI) in [1], in assay [2], in assay [4], in assay [5], in assay [6] and in assay [7] was above 100 µM in each case. The concentration for total growth inhibition (TGI) in [8] stood at 66.4 µM; in assay [9], 91.9 µM; in assay [10], 78.8 µM.

For `CCC(=O)NC(Nc1cc(C)on1)(C(F)(F)F)C(F)(F)F`, the TGI in assay [1], in assay [2], in assay [3], in assay [4], in assay [5] and in assay [6] was above 100 µM each time. Moreover, the concentration for total growth inhibition (TGI) in assay [7], in [9] and in [10] was above 100 µM each time.

In the case of `COc1ccc(C(=C2C=CC=C2)c2ccc(OC)cc2)cc1`, the TGI is 95.3 µM in assay [2]; 28 µM in assay [3]; above 100 µM in [4]; above 100 µM in assay [5]; 34.8 µM in assay [6]; above 100 µM in assay [7]. Further, the total growth inhibition concentration (TGI) in assay [8] was above 100 µM; in assay [9], 57.7 µM; in assay [10], above 100 µM.
